The source of these data is patent US20170129911A1, “COMPLEXES COMPRISING A PLATINUM COMPOUND AND AN IMMUNE CHECKPOINT INHIBITOR AND RELATED METHODS” (Massachusetts Institute of Technology, priority 2015, published 2017).

The target of one data set is IDO (Homo sapiens, UniProt P14902). The experiment in a line: Cellular determination of kynurenine by HPLC in medium of SKOV3 cells. The following applies: 2 10 μM vs (D)-1-MT 1 mM.
In another data set the test system is human IDO in SKOV3 cells. The experiment in a line: Immunoblotting and qRT-PCR of IDO expression in SKOV3 cells. The data set is classed as cell-based. The following applies: immunoblotting and qRT-PCR. Here is the method: Total RNA was isolated with the Qiagen RNAeasy RNA isolation kit (Hilden, Germany) and cDNA was synthesized with the Applied Biosystems reverse-transcription-kit (Foster City, Calif., USA). qRT-PCR was performed in a Light cycler 480 II thermo cycler with SYBR Green PCR Mastermix (Roche). All primers were separated by at least one intron on the genomic DNA to exclude its amplification. PCR reactions were checked by including no-RT controls, by omission of templates, and by melting curves. Standard curves were generated for each gene. Relative quantification of gene expression was determined by comparison of threshold values. All samples were analyzed in duplicate at two different dilutions. All results were normalized to GAPDH.
Cells were washed with PBS, scraped into SDS-PAGE loading buffer (64 mM Tris-HCl (pH 6.8)/9.6% glycerol/2% SDS/5% β-mercaptoethanol/0.01% Bromophenol Blue), and incubated at 95° C. for 10 min. […] Membranes were blocked in 5% (w/v) bovine serum albumin in PBST (PBS/0.1% Tween 20) and incubated with the appropriate primary antibodies (Cell Signalling Technology and Santa Cruz). After incubation with horseradish peroxidase-conjugated secondary antibodies (Cell Signalling Technology), 1:1000, immuno complexes were detected with the ECL detection reagent (BioRad) and analyzed using UVP biospectrum imaging system fitted with a chemiluminescence filter.

Data set [1] can be described thus: Whole human blood stability test. The data set is classed as in vitro ADME. How it is done: To a volume of 0.8 mL fresh whole human blood (Innovative Research, Novi, Mich.) was added 24 μL of a DMSO solution of 2 (2.0 mM), resulting in a final concentration of 60 μM. After 5 sec of vortexing, a 100 μL aliquot of the blood sample (0 h time point) was immediately transferred to a new tube containing 300 μL of octanol, and the remaining […] of blood was incubated at 37° C. with rotation (1100 rpm). The blood-octanol mixture was vortexed for 2 min at R.T. and then centrifuged to separate the phases. The isolated octanol extract was diluted with methanol for GFAAS measurement. At varying time points (1 h, 2 h, 3 h, 5 h, and 7 h), a 100 μL aliquot was removed from the incubating blood and extracted as described above. For the 7 h sample, analytical HPLC was employed to confirm the integrity of the Pt compound. A standard of 2 and an octanol extract from blank whole human blood were used for comparison.

Data set [2] concerns A2780/CP70 human ovarian cancer cells. Description: Cytotoxicity MTT assay, A2780/CP70. The data set is classed as cell-based. As to conditions: cisplatin-sensitive and resistant ovarian cancer cell lines. The source says: Ovarian carcinoma cells, NIH:OVCAR3, A2780, A2780/CP70, and SKOV3 were purchased from the American Type Culture Collection (ATCC, Rockville Md.). Peripheral blood mononuclear cells (PBMCs) of two different donors were obtained from Zen Bio Inc. (Research Triangle, NC). Cancer cell lines were maintained in Roswell Park Memorial Institute (RPMI) medium (glutamine-free supplemented with 10% fetal bovine serum, Atlanta Biologics, Atlanta Ga.) and 1% penicillin/streptomycin. PBMCs were thawed in specialized medium (10% […], 40% RPMI and 50% FBS) and subsequently cultured in RPMI containing 20% FBS. For T-cell proliferation experiments, PBMCs were stimulated by the addition of phytohemagglutinin (PHA-P). All cells were grown at 310 K in a humidified atmosphere containing 5% CO2. D-1-methyltryptophan, L-tryptophan and L-kynurenine were purchased from Sigma Aldrich.
The colorimetric MTT assay was used to determine the toxicity of 1, 2, and cisplatin. Cells (2×10^3) were seeded in each well of a 96-well plate. […] Cisplatin was prepared as a 5 mM solution in PBS and diluted using media. 1, 2 and C16—Pt-Suc-NHC2H4OH were prepared as 10 mM solution in DMSO and diluted using media. The final volume amount of DMSO in each well was 0.5%, and which was present in the untreated control as well. Cells co-incubated with cisplatin and (D)-1-MT were first pre-treated with 1 mM (D)-1-MT. […] The RPMI/MTT, mixture was aspirated and 100 μL of DMSO was added to dissolve the resulting purple formazan crystals. The absorbance of the solution wells was read at 570 and 650 nm. Absorbance values were normalized to DMSO-containing control wells and plotted as concentration of test compound versus % cell viability. IC50 values were interpolated from the resulting dose dependent curves. The reported IC50 values are the average of at least three independent experiments, each of which consisted of six replicates per concentration level.

Chain of IDO (P14902 whole entry): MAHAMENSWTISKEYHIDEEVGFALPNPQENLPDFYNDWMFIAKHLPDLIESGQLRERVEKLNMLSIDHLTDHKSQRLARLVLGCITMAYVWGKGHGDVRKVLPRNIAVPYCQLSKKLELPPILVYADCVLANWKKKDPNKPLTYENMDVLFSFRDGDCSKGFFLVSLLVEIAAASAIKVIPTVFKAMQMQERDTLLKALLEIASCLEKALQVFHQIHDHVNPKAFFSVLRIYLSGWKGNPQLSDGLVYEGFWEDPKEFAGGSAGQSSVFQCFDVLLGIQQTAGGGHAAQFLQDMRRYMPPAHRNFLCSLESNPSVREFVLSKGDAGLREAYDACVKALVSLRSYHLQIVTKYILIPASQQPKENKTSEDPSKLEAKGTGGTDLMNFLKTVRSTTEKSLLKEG

Turning to `CCCCCCCCCCCCCCCCNC(=O)[O][Pt]([NH2])([NH2])([Cl])([Cl])[O]C(=O)CCC(=O)NCCOC(=O)[C@H](N)Cc1cn(C)c2ccccc12` (mixture of isomers) [Compound 2, cis,cis,trans-[Pt(NH3)2Cl2(O2CC2H4OCNHC2H4O2C-D-1MT)(O2CNHC16H33)]], on IDO, the “block of kynurenine release in the medium in comparison to (D)-1-MT” value is given as “by a factor of three”. For the same molecule, the “IDO protein expression (IDO inhibition)” value in the data set on human IDO in SKOV3 cells is reported as “effectively block IDO protein expression”. Further, in data set [1] (fresh whole human blood, whole human blood, 60 μM, 37° C., read-out: t1/2 in human blood (converted)), the half-life at 60 µM is 2.2 h. In data set [1] (summary statement), the stability in blood result is on record as “stable in blood”. Besides, in data set [2], the cross-resistance with cisplatin entry is listed as “no cross-resistance with cisplatin”.
